Each sequence was assayed against T1, TLR8 (Homo sapiens, UniProt Q9NR97) (assay: HEK-TLR8 NF-κB-luciferase reporter, R848 or Motolimod stimulation (potentiation or inhibition)). Conditions: ASO 100 nM; relative to R848 only.
T1 sequence (Q9NR97 27-1041): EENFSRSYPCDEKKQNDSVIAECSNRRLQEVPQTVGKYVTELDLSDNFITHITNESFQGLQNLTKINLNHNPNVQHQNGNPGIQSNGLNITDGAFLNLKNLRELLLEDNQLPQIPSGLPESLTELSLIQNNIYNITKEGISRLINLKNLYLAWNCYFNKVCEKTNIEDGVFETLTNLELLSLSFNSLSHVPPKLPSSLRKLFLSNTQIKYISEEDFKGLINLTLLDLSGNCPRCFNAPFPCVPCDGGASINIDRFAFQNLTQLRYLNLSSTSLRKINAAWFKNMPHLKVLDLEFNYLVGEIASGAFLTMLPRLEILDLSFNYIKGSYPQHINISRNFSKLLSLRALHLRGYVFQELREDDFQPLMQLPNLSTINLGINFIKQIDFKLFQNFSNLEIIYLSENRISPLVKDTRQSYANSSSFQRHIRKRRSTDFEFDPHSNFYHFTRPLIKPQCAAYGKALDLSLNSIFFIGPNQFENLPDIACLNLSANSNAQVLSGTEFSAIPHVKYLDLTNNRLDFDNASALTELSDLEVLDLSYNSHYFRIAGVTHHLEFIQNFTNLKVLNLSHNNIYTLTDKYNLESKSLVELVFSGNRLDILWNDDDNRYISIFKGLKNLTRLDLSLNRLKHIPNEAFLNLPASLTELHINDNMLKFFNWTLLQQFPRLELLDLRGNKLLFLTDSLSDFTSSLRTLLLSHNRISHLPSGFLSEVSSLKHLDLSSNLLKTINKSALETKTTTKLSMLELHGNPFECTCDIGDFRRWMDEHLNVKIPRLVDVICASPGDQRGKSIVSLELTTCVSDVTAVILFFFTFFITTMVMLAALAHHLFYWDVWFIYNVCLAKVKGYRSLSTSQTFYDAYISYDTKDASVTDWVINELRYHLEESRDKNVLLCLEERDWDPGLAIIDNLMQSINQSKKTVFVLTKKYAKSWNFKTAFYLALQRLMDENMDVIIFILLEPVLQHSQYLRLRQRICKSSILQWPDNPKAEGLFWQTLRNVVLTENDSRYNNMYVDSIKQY
Type: cell-based
Set-up: expressed in transfected cells; host or cells: 293XLhTLR8 (HEK293)

Sequence	TLR8 100 nM (averaged NF-κB-Luciferase level relative to R848 condition, fold increase)
AAAGGACTGAGGAAAG (antisense; LNA-modified, pattern not given here) [CAMSAP1-6273 LNA KL]	0.882
AACACTTCGTGGGGTC (antisense; LNA-modified, pattern not given here) [HPRT LNA-666 V1]	0.496
AACCCCTTTCACCATC (antisense; LNA-modified, pattern not given here) [MB21D1-689 LNA KL]	1.871
AATCCAACAAAGTCTG (antisense; LNA-modified, pattern not given here) [HPRT LNA-692 KL]	0.591
ACCACGTCTGCTCTAA (antisense; LNA-modified, pattern not given here) [CAMSAP1-1635 LNA KL]	0.933
ACGTTCAGTCCTGTCC (antisense; LNA-modified, pattern not given here) [HPRT LNA-294 V1]	0.356
ACTTCGTGGGGTCCTT (antisense; LNA-modified, pattern not given here) [HPRT LNA-663 V1]	0.820
AGATTTCAGAGCAGCT (antisense; LNA-modified, pattern not given here) [EGFR-4885 LNA KL]	0.401
AGCTTCGAGGCCCCAG (antisense; LNA-modified, pattern not given here) [MB21D1-616 LNA V1]	0.331
AGGACTCCAGATGTTT (antisense; LNA-modified, pattern not given here) [HPRT LNA pos cont]	0.278
AGGCCCTTCGCACTTC (antisense; LNA-modified, pattern not given here) [EGFR-1225 LNA V1]	0.507
AGGTCTTGGCTTCGTG (antisense; LNA-modified, pattern not given here) [MB21D1-524 LNA V1]	0.596
AGTGTTGAGATACTCG (antisense; LNA-modified, pattern not given here) [EGFR-3652 LNA KL]	0.427
ATCTGGCAGCCCATCA (antisense; LNA-modified, pattern not given here) [CTNN2B-2516 LNA V1]	0.808
ATGGCCTCCCATCTCC (antisense; LNA-modified, pattern not given here) [HPRT LNA-330 V1]	0.369
ATGTGATGGCCTCCCA (antisense; LNA-modified, pattern not given here) [HPRT LNA-335 V1]	0.637
CACTTCGTGGGGTCCT (antisense; LNA-modified, pattern not given here) [HPRT LNA-664 V1]	0.425
CATCCACCACGTCGTC (antisense; LNA-modified, pattern not given here) [EGFR-3266 LNA V1]	0.778
CCAACACTTCGTGGGG (antisense; LNA-modified, pattern not given here) [HPRT LNA-668 V1]	0.535
CCACATCCTGTGGCTC (antisense; LNA-modified, pattern not given here) [CAMSAP1-2906 LNA V1]	0.291
CCACTTGGCAGACCAT (antisense; LNA-modified, pattern not given here) [CTNN2B-1575 LNA V1]	0.684
CCAGCAGGTCAGCAAA (antisense; LNA-modified, pattern not given here) [HPRT LNA-388 KL]	0.412
CCCACTTGGCAGACCA (antisense; LNA-modified, pattern not given here) [CTNN2B-1576 LNA V1]	0.899
CCTCCCATCTCCTTCA (antisense; LNA-modified, pattern not given here) [HPRT LNA-326 V1]	1.469
CCTTGCACGTGGCTTC (antisense; LNA-modified, pattern not given here) [EGFR-1013 LNA V1]	1.315
CGCTTTTCTGTCTGGT (antisense; LNA-modified, pattern not given here) [CTNN2B-311 LNA KL]	0.920
CGGCCTCGGAAGCTCT (antisense; LNA-modified, pattern not given here) [MB21D1-168 LNA V1]	0.402
CGTATTATAGCCGATT (antisense; LNA-modified, pattern not given here) [NC1 LNA PS 3-10-3]	0.396
CTGCAGCTTCCTTGTC (antisense; LNA-modified, pattern not given here) [CTNN2B-2136 LNA V1]	0.478

Same assay, conditions: ASO 500 nM; relative to R848 only

Sequence	TLR8 500 nM (averaged NF-κB-Luciferase level relative to R848 condition, fold increase)
AAAGGACTGAGGAAAG (antisense; LNA-modified, pattern not given here) [CAMSAP1-6273 LNA KL]	2.663
AACACTTCGTGGGGTC (antisense; LNA-modified, pattern not given here) [HPRT LNA-666 V1]	0.882
AACCCCTTTCACCATC (antisense; LNA-modified, pattern not given here) [MB21D1-689 LNA KL]	8.654
AATCCAACAAAGTCTG (antisense; LNA-modified, pattern not given here) [HPRT LNA-692 KL]	1.900
ACCACGTCTGCTCTAA (antisense; LNA-modified, pattern not given here) [CAMSAP1-1635 LNA KL]	4.259
ACGTTCAGTCCTGTCC (antisense; LNA-modified, pattern not given here) [HPRT LNA-294 V1]	0.493
ACTTCGTGGGGTCCTT (antisense; LNA-modified, pattern not given here) [HPRT LNA-663 V1]	3.672
AGATTTCAGAGCAGCT (antisense; LNA-modified, pattern not given here) [EGFR-4885 LNA KL]	0.770
AGCTTCGAGGCCCCAG (antisense; LNA-modified, pattern not given here) [MB21D1-616 LNA V1]	0.865
AGGACTCCAGATGTTT (antisense; LNA-modified, pattern not given here) [HPRT LNA pos cont]	1.034
AGGCCCTTCGCACTTC (antisense; LNA-modified, pattern not given here) [EGFR-1225 LNA V1]	0.967
AGGTCTTGGCTTCGTG (antisense; LNA-modified, pattern not given here) [MB21D1-524 LNA V1]	1.953
AGTGTTGAGATACTCG (antisense; LNA-modified, pattern not given here) [EGFR-3652 LNA KL]	0.599
ATCTGGCAGCCCATCA (antisense; LNA-modified, pattern not given here) [CTNN2B-2516 LNA V1]	2.628
ATGGCCTCCCATCTCC (antisense; LNA-modified, pattern not given here) [HPRT LNA-330 V1]	1.356
ATGTGATGGCCTCCCA (antisense; LNA-modified, pattern not given here) [HPRT LNA-335 V1]	1.840
CACTTCGTGGGGTCCT (antisense; LNA-modified, pattern not given here) [HPRT LNA-664 V1]	1.446
CATCCACCACGTCGTC (antisense; LNA-modified, pattern not given here) [EGFR-3266 LNA V1]	2.417
CCAACACTTCGTGGGG (antisense; LNA-modified, pattern not given here) [HPRT LNA-668 V1]	0.835
CCACATCCTGTGGCTC (antisense; LNA-modified, pattern not given here) [CAMSAP1-2906 LNA V1]	0.232
CCACTTGGCAGACCAT (antisense; LNA-modified, pattern not given here) [CTNN2B-1575 LNA V1]	1.213
CCAGCAGGTCAGCAAA (antisense; LNA-modified, pattern not given here) [HPRT LNA-388 KL]	1.499
CCCACTTGGCAGACCA (antisense; LNA-modified, pattern not given here) [CTNN2B-1576 LNA V1]	1.865
CCTCCCATCTCCTTCA (antisense; LNA-modified, pattern not given here) [HPRT LNA-326 V1]	6.759
CCTTGCACGTGGCTTC (antisense; LNA-modified, pattern not given here) [EGFR-1013 LNA V1]	2.414
CGCTTTTCTGTCTGGT (antisense; LNA-modified, pattern not given here) [CTNN2B-311 LNA KL]	2.896
CGGCCTCGGAAGCTCT (antisense; LNA-modified, pattern not given here) [MB21D1-168 LNA V1]	0.219
CGTATTATAGCCGATT (antisense; LNA-modified, pattern not given here) [NC1 LNA PS 3-10-3]	0.716
CTGCAGCTTCCTTGTC (antisense; LNA-modified, pattern not given here) [CTNN2B-2136 LNA V1]	0.936

Same assay, conditions: MOE-modified ASO at 100 nM; averaged NF-κB-Luciferase relative to R848 condition (fold increase)

Sequence	TLR8 100 nM
ACACTTCGTGGGGTCCTTTT (antisense; 2'-MOE modified, pattern not given here) [HPRT-663 MOE]	4.778

Same assay, conditions: MOE-modified ASO at 500 nM; averaged NF-κB-Luciferase relative to R848 condition (fold increase)

Sequence	TLR8 500 nM
ACACTTCGTGGGGTCCTTTT (antisense; 2'-MOE modified, pattern not given here) [HPRT-663 MOE]	6.320

From patent publication US20240384268A1, “Oligonucleotides” (Hudson Institute of Medical Research, priority 2021, published 2024)
